Reference: ChEMBL document CHEMBL4602617, “Discovery and optimization of heteroaryl piperazines as potent and selective PI3Kδ inhibitors” (Bioorg Med Chem Lett, 2020)

Key:
[1] = Volume of drug distribution in dog at 0.5 mg/kg, iv or 1 mg/kg, po; assay type: ADME, organism-based, Canis lupus familiaris; conditions: in vivo
[2] = target: Voltage-gated inwardly rectifying potassium channel KCNH2 (Homo sapiens, UniProt Q12809); assay: Inhibition of human ERG
[3] = target: Tyrosine-protein kinase BTK (Homo sapiens, UniProt Q06187); assay: Inhibition of recombinant full length human His-tagged BTK expressed in baculovirus expression system using tyrosine-2 peptide as substrate incubated for 60 mins in presence of ATP by Z'-LYTE assay
[4] = target: Vasopressin V1a receptor (Homo sapiens) (UniProt P37288); assay: Displacement of [125I]phenylacetylTyr(Me)PheGlnAsnArgProArgTyr from recombinant full length human V1A receptor expressed in HEK293 cells at 10 uM after 120 mins by radiometric scintillation analysis relative to control; assay type: cell-based
[5] = target: Sodium-dependent dopamine transporter (Homo sapiens) (UniProt Q01959); assay: Displacement of [125I]RTI-55 from full length recombinant human dopamine transporter expressed in CHO-S cells at 10 uM after 3 hrs by radiometric scintillation analysis relative to control; assay type: cell-based
Chain of Sodium-dependent dopamine transporter (Homo sapiens) (Q01959 whole entry): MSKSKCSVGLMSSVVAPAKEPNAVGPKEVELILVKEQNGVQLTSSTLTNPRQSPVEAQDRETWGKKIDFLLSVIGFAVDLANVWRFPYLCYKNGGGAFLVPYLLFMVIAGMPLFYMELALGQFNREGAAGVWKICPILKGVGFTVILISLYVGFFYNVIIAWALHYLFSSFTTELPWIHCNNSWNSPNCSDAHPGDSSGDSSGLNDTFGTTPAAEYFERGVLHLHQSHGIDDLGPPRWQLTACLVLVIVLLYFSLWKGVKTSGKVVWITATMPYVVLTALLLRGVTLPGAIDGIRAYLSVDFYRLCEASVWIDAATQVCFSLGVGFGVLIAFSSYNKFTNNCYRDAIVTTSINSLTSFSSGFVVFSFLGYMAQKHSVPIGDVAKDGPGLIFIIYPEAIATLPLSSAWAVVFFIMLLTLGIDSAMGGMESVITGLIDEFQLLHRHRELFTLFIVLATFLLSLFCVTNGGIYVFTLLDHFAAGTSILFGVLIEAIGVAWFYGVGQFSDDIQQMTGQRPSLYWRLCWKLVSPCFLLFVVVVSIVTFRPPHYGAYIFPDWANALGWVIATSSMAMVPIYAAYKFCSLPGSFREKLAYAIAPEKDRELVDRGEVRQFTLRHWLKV

[6] = target: Mu-type opioid receptor (Homo sapiens) (UniProt P35372); assay: Displacement of [3H]diprenorphine from full length human recombinant Mu opioid receptor expressed in CHO-K1 cells at 10 uM measured after 60 mins by radiometric scintillation analysis relative to control; assay type: cell-based
[7] = target: Acetylcholine receptor subunit alpha (Homo sapiens) (UniProt P02708); assay: Displacement of [125I]-alpha-Bungarotoxin from full length nAChR alpha1 receptor in human RD cell membranes at 10 uM measured after 120 mins by radiometric scintillation analysis relative to control
[8] = target: Neurotensin receptor type 1 (Homo sapiens) (UniProt P30989); assay: Displacement of [125I]neurotensin from NT1 receptor in human HEK293 EBNA cell membranes at 10 uM measured after 45 mins by radiometric scintillation analysis relative to control
[9] = target: Glutamate NMDA receptor (Rattus norvegicus) (UniProt P35439+Q00959+Q00960+Q00961+Q62645+Q8VHN2+Q9R1M7); assay: Displacement of [3H]TCP from glutamate NMDA receptor phencyclidine binding site in Wistar rat cerebral cortex at 10 uM incubated for 45 mins by radiometric scintillation analysis relative to control
[10] = target: Alpha-2A adrenergic receptor (Homo sapiens) (UniProt P08913); assay: Displacement of [3H]rauwolscine from full-length recombinant human alpha2A receptor expressed in CHOK1 cells at 10 uM measured after 60 mins by scintillation counting method relative to control; assay type: cell-based; conditions: CHO-K1
Caspase-3 (Homo sapiens) = Caspase-3 (Homo sapiens) (UniProt P42574); assay: Inhibition of recombinant full-length human caspase 3 expressed in Escherichia coli at 10 uM using Ac-DEVD-AMC as substrate after 60 mins by spectrophotometric analysis relative to control
Chain of Caspase-3 (Homo sapiens) (P42574 29-175 limits assumed): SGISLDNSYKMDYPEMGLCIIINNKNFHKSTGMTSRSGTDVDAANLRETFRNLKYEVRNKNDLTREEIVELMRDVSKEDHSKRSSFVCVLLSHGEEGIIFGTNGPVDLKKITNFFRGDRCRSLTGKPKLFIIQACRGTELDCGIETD
Chain of Caspase-3 (Homo sapiens) (P42574 176-277 limits assumed): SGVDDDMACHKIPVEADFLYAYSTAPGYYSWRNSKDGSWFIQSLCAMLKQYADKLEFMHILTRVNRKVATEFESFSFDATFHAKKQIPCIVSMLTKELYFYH

[11] = target: Dual specificity protein kinase CLK1 (Homo sapiens, UniProt P49759); assay: Inhibition of recombinant human GST-tagged CLK1 catalytic domain (129 to 484 residues) expressed in Escherichia coli expression system using serine/threonine-9 peptide as substrate incubated for 60 mins in presence of ATP by Z'-LYTE assay
[12] = target: G protein-coupled receptor kinase 6 (Homo sapiens, UniProt P43250); assay: Inhibition of recombinant full length human GST-tagged GRK6 expressed in baculovirus expression system using serine/threonine-16 peptide as substrate incubated for 60 mins in presence of ATP by Z'-LYTE assay
[13] = target: Serine/threonine-protein kinase haspin (Homo sapiens, UniProt Q8TF76); assay: Inhibition of recombinant N-terminal GST tagged human GSG2 catalytic domain (471 to 798 residues) expressed in baculovirus expression system using Histone H3 (1-20) peptide as substrate after 1 hr in presence of ATP by ADAPTA assay
[14] = target: Inhibitor of nuclear factor kappa-B kinase subunit alpha (Homo sapiens, UniProt O15111); assay: Inhibition of recombinant full length His-tagged human IKKalpha expressed in baculovirus expression system after 1 hr in presence of ATP by Adapta assay
Chain of Inhibitor of nuclear factor kappa-B kinase subunit alpha (O15111 whole entry, the tested form may be a part): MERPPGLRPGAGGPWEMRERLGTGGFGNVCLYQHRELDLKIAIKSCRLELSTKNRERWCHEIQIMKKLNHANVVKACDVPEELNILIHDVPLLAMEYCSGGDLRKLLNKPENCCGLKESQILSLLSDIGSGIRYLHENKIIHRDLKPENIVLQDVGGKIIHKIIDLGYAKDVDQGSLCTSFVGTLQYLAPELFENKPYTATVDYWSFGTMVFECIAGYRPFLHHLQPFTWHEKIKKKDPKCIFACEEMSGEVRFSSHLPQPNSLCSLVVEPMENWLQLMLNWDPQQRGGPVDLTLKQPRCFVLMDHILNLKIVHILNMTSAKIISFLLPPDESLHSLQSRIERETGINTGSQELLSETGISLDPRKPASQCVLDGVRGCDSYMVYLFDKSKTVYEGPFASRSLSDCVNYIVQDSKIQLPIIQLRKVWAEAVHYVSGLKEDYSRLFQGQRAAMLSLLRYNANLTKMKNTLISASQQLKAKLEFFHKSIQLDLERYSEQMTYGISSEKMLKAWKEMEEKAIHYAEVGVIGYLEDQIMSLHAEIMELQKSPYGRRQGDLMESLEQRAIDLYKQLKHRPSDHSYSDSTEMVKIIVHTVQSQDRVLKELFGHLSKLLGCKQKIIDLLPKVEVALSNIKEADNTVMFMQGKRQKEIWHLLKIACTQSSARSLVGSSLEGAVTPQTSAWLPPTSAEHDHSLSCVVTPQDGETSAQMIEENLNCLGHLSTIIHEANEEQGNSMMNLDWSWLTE

[15] = target: Interleukin-1 receptor-associated kinase 1 (Homo sapiens, UniProt P51617); assay: Inhibition of recombinant human GST-tagged IRAK1 catalytic domain (194 to 712 residues) expressed in baculovirus expression system using Histone H3 (1-20) peptide as substrate incubated for 60 mins in presence of ATP by Adapta assay
[16] = target: Tyrosine-protein kinase JAK2 (Homo sapiens, UniProt O60674, V617F); assay: Inhibition of human recombinant GST tagged JAK2 V617F mutant catalytic domain expressed in baculovirus expression system using Tyr6 peptide as substrate measured after 1 hr in presence of ATP by Z'-LYTE assay
[17] = target: Mitogen-activated protein kinase 3 (Homo sapiens, UniProt P27361); assay: Inhibition of recombinant full length human GST-tagged ERK1 expressed in Escherichia coli using fluorophore-labeled serine/threonine-3 peptide as substrate incubated for 60 mins in presence of ATP by Z'-LYTE assay
Chain of Mitogen-activated protein kinase 3 (P27361 whole entry, the tested form may be a part): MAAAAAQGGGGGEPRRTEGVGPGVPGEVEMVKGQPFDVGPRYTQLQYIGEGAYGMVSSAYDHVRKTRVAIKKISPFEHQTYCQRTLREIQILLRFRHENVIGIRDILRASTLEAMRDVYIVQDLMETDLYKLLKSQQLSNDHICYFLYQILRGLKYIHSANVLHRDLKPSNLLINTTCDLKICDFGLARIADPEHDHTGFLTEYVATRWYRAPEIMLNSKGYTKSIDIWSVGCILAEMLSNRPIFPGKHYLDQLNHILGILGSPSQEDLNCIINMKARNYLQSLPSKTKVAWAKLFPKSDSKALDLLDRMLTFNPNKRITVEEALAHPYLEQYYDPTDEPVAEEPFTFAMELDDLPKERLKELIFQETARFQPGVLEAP

[18] = target: Hepatocyte growth factor receptor (Homo sapiens, UniProt P08581); assay: Inhibition of human recombinant His-tagged cMET cytoplasmic domain expressed in baculovirus expression system using tyrosine 6 peptide as substrate after 60 mins in presence of ATP FRET based Z'-LYTE assay
Chain of Hepatocyte growth factor receptor (P08581 whole entry, the tested form may be a part): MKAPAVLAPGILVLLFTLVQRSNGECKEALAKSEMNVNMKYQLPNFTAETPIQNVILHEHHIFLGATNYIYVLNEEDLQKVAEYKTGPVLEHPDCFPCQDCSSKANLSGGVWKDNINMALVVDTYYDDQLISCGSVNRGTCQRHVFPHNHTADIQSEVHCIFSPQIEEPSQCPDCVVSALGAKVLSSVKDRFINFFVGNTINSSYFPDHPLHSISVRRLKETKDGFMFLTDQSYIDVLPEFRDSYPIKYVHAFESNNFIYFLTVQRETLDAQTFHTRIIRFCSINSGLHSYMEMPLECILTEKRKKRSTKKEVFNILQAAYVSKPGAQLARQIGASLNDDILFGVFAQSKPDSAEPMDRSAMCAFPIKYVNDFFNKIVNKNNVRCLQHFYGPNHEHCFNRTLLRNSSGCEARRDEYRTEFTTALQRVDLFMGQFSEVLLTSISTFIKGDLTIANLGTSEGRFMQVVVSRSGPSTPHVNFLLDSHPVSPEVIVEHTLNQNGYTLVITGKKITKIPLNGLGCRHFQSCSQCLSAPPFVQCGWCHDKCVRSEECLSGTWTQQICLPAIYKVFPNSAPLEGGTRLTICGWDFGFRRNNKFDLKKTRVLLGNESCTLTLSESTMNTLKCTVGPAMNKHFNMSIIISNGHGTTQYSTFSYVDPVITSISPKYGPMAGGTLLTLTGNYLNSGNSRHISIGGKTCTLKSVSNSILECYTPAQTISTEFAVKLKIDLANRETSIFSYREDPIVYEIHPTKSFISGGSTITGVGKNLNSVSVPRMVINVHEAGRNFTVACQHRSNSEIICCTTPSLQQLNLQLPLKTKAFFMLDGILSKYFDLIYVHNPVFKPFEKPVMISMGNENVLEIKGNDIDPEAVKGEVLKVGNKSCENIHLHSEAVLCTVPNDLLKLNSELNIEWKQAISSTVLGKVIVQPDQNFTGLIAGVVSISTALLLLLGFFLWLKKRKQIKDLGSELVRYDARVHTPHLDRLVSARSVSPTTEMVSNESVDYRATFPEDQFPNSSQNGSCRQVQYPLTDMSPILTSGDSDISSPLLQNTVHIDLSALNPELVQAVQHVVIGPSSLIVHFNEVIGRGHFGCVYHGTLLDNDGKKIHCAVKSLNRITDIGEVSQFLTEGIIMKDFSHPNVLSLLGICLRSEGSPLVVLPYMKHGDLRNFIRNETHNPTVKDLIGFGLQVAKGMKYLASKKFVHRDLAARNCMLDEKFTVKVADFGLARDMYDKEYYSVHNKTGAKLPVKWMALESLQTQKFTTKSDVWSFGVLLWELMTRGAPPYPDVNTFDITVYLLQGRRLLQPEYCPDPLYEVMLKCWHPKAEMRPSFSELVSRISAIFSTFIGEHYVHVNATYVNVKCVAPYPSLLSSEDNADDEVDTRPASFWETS

[19] = target: Serine/threonine-protein kinase Nek4 (Homo sapiens, UniProt P51957); assay: Inhibition of recombinant full length human GST-tagged NEK4 expressed in baculovirus expression system using serine/threonine-7 peptide as substrate incubated for 60 mins in presence of ATP by Z'-LYTE assay
Chain of Serine/threonine-protein kinase Nek4 (P51957 whole entry): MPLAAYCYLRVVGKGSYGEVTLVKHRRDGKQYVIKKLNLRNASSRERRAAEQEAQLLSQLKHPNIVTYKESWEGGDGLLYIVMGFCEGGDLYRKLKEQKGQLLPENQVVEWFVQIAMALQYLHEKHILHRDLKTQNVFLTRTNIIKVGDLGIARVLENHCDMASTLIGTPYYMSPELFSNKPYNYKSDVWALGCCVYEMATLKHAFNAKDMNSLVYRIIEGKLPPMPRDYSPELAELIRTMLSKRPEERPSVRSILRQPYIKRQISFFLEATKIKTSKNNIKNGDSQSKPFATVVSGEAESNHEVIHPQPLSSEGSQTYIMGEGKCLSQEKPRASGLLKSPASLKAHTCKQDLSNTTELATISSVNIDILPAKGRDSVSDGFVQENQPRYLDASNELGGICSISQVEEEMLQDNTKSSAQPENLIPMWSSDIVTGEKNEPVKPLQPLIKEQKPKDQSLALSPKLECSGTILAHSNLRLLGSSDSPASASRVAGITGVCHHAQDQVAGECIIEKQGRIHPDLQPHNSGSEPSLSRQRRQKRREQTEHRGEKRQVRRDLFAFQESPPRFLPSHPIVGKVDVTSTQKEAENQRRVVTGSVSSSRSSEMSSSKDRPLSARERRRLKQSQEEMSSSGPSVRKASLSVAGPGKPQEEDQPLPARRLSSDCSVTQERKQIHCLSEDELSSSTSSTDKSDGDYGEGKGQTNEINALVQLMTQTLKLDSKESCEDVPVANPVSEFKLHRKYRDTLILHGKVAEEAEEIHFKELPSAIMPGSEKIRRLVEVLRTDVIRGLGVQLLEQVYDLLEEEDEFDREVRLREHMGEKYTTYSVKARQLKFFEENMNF

[20] = target: NUAK family SNF1-like kinase 1 (Homo sapiens, UniProt O60285); assay: Inhibition of recombinant full length His-tagged human NUAK1 expressed in baculovirus expression system using CHKtide as substrate after 1 hr in presence of ATP by Adapta assay
[21] = target: cGMP-dependent protein kinase 2 (Homo sapiens, UniProt Q13237); assay: Inhibition of recombinant full length GST-tagged human PKG2 expressed in baculovirus expression system using Ser/Thr 01 as substrate after 1 hr in presence of ATP by Z'-LYTE assay
Chain of cGMP-dependent protein kinase 2 (Q13237 whole entry, the tested form may be a part): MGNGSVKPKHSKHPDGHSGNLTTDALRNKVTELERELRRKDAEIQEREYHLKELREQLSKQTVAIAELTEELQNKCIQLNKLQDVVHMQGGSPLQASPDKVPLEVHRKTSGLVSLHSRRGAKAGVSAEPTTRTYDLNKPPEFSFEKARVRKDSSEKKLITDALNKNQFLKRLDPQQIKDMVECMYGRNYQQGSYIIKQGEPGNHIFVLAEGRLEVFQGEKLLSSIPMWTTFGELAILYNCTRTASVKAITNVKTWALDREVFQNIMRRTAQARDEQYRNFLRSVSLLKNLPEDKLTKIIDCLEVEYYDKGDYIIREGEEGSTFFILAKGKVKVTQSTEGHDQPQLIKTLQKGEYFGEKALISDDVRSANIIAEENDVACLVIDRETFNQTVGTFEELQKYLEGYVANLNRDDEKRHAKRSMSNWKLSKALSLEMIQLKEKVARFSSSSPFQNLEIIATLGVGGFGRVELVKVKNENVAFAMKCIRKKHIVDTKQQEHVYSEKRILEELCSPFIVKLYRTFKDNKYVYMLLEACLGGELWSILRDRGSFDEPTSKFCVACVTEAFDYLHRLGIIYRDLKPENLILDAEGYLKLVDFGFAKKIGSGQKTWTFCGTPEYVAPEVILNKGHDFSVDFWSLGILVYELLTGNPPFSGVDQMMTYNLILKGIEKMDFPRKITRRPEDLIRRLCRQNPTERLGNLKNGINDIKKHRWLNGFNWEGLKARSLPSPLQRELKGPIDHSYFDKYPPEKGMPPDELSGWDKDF

[22] = target: cAMP-dependent protein kinase catalytic subunit alpha (Homo sapiens, UniProt P17612); assay: Inhibition of recombinant human His-tagged PRKACA catalytic domain expressed in Escherichia coli using fluorophore-labeled serine/threonine-1 peptide as substrate incubated for 60 mins in presence of ATP by Z'-LYTE assay
[23] = target: Serine/threonine-protein kinase D1 (Homo sapiens, UniProt Q15139); assay: Inhibition of recombinant full length human GST-tagged PKCmu expressed in baculovirus expression system using serine/threonine-17 peptide as substrate incubated for 60 mins in presence of ATP by Z'-LYTE assay
Angiopoietin-1 receptor = Angiopoietin-1 receptor (Homo sapiens, UniProt Q02763); assay: Inhibition of recombinant human GST-tagged TIE2 (817 to 1101 residues) expressed in baculovirus expression system using tyrosine-5 peptide as substrate incubated for 60 mins in presence of ATP by Z'-LYTE assay

Molecule `C[C@@H]1C[C@H]1C(=O)N1CCN(c2cnc(C#N)c(-c3cnn(C)c3)n2)C[C@H]1C` has a Vd [1] of 1.1 L/kg, an IC50 [2] of 23 µM and an IC50 [3] of 39.6 µM. For the same molecule, the inhibition [4] was -3%, the inhibition [5] was 1% and the inhibition [6] was 5%. It also gave an inhibition [7] of 5%, an inhibition [8] of 1% and an inhibition [9] of -4%. For the same molecule, the inhibition [10] was 2%, the inhibition (Caspase-3 (Homo sapiens)) was 0% and the IC50 [11] was > 100 µM. The IC50 [12] was > 100 µM, the IC50 [13] was > 100 µM and the IC50 [14] was > 100 µM. For the same molecule, the IC50 [15] was > 100 µM, the IC50 [16] was > 100 µM and the IC50 [17] was > 100 µM. For the same molecule, the IC50 [18] was > 100 µM, the IC50 [19] was > 100 µM and the IC50 [20] was > 100 µM. The IC50 [21] was > 100 µM, the IC50 [22] was > 100 µM and the IC50 [23] was > 100 µM. The IC50 (Angiopoietin-1 receptor) was > 100 µM.
